Measurements as given in patent publication US20240239788A1, “SMALL MOLECULE INHIBITORS OF KRAS G12D MUTANT” (Merck Sharp & Dohme LLC, priority 2021, published 2024).
Counter-ions that a name gives are not always drawn. Like-named read-outs stand apart in the source and are kept apart here.

Assays:
[1] = target: KRAS protein containing G12D mutation (Homo sapiens (Human), UniProt P01116, G12D); assay: SOS-catalyzed nucleotide exchange assay (GNE), TR-FRET; assay type: biochemical; details: biotinylated KRAS G12D, SOS and GTP, 60-minute incubation
Protocol: Compounds are added to this complex and then after a 60-minute incubation time the mixture is treated with SOS and unlabeled GTP. Small molecule inhibitors stabilize the Bodipy-GDP complex whereas the untreated protein rapidly exchanges Bodipy-GDP for unlabeled GTP resulting in reduced TR-FRET signal.
This solution is referred to as biotinylated KRAS G12D stock solution.

[2] = target: KRAS G12D / Ras binding domain of C-RAF (Homo sapiens (Human), UniProt P01116, G12D); assay: RAS:RAF-RBD binding assay (cRaf), TR-FRET; details: IC50 (nM) (cRaf), biotinylated KRAS G12D, GST-C-RAF RBD
[3] = tested on: AsPC-1 cells containing homozygous KRAS-G12D activating mutation; assay: Cellular phospho-ERK assay (Examples 1a-106); assay type: cell-based; details: AsPC-1 cells, 2 hours, ratio of p-Erk vs total Erk, read-out: IC50 (nM) pERK (Cell)
Text: 5% CO? overnight. […] Assay plates were read on a EnVision Multimode Plate Reader (PerkinElmer) and the ratio of p-Erk vs total Erk in each well was used as the final readout.

Sequence of KRAS protein containing G12D mutation (P01116 other isoform, or with tags, fused parts or gaps G12D (already in the parent)): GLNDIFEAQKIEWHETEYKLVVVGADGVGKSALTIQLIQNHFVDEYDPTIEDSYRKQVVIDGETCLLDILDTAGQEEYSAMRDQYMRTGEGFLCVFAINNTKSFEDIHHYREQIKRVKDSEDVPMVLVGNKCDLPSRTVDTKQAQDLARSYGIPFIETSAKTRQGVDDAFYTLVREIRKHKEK
Sequence of KRAS G12D / Ras binding domain of C-RAF (P01116 other isoform, or with tags, fused parts or gaps G12D (already in the parent)): as above

SMILES	IC50 [1]	IC50 [2]	IC50 ([3]; Homo sapiens, ASPC1, 2 h)	IC50 [3]	IC50 ([3]; TFA)
Nc1nc2c(-c3c(F)cc4c(N5CC6CCC(C5)N6)nc(OCC5(CN6CC[C@@H](F)C6)CC5)nc4c3F)ccc(F)c2s1 [Example 61]	38.7 nM	3350 nM	7580 nM		
Cc1cc2[nH]ncc2c(-c2c(F)cc3c(N4C[C@H]5CC[C@@](C)(C4)N5)nc(OC[C@]4(CN(C)C)CC4(F)F)nc3c2F)c1C(F)(F)F (single isomer, unassigned) [Ex 76a]	12 nM	1810 nM		593 nM	
C#Cc1cccc2cc(O)cc(-c3c(F)cc4c(N5C[C@]6(C)CC[C@H]5CN6)nc(OC[C@@]56CCCN5C[C@H](F)C6)nc4c3F)c12 [compound 104, 4-(6,8-difluoro-2-(((2R,7aS)-2-fluorotetrahydro-1H-pyrrolizin-7a(5H)-yl)methoxy)-4-((1S,4S)-4-methyl-2,5-diazabicyclo[2.2.2]octan-2-yl)quinazolin-7-yl)-5-ethynylnaphthalen-2-ol]	1.05 nM	5.93 nM	11.8 nM		
Cc1cc2[nH]ncc2c(-c2c(F)cc3c(N4CC5CCC(C4)N5)nc(OCC4(CN(C)C)CC4(F)F)nc3c2F)c1C (single isomer, unassigned) [Example 66a, 1-(1-(((4-(3,8-diazabicyclo [3.2.1]octan-3-yl)-7-(5,6-dimethyl-1H-indazol-4-yl)-6,8-difluoroquinazolin-2-yl)oxy)methyl)-2,2-difluorocyclopropyl)-N,N-dimethylmethanamine]	54 nM		3460 nM		
Cc1c(Cl)cc2[nH]nc(C)c2c1-c1c(F)cc2c(N3CC4CCC(C3)N4)nc(OCC3(CN4CC[C@@H](F)C4)CC3)nc2c1F (single isomer, unassigned) [Ex 71b]	1340 nM			4240 nM	
CN(C)CC1(COc2nc(N3CC4CC(O)C(C3)N4)c3cc(Cl)c(-c4cc(O)cc5ccccc45)c(F)c3n2)CC1 (single isomer, unassigned) [Example 23, 3-(6-chloro-2-((1-((dimethyalmino)meth-yl)cyclopropyl)meth-oxy)-8-fluoro-7-(3-hydroxynaphthalen-1-yl)quinazolin-4-yl)-3,8-diazabicyclo[3.2.1]oc-tan-6-ol]	4280 nM			44800 nM	
C[C@]12CC[C@H](CN(c3nc(OCC4(CN5CCOCC5)CC4)nc4c(F)c(-c5c(F)cc(F)c6ccc(N)nc56)c(Cl)cc34)C1)N2 (single isomer, unassigned) [Ex. 91a]	11100 nM			17600 nM	
CN(C)CC1(COc2nc(N3CC4CCC(C3)N4)c3cc(Cl)c(-c4cc(C(F)(F)F)cc5[nH]ncc45)c(F)c3n2)CC1 [Example 56, 1-(1-(((4-(3,8-diazabicyclo[3.2.1]octan-3-yl)-6-chloro-8-fluoro-7-(6-(trifluoromethyl)-1H-indazol-4-yl)quinazolin-2-yl)oxy)methyl)cyclopropyl)-N,N-dimethylmethanamine]	4030 nM		6920 nM		
Cc1cc2[nH]ncc2c(-c2c(F)cc3c(N4C[C@H]5CC[C@@H](C4)N5)nc(OCC4(CN(C)C)CC4(F)F)nc3c2F)c1Cl (stereo partly drawn) [Example 64, 1-(1-(((4-((1R,5S)-3,8-diazabicyclo[3.2.1]octan-3-yl)-7-(5-chloro-6-methyl-1H-indazol-4-yl)-6,8-difluoroquinazolin-2-yl)oxy)methyl)-2,2-difluorocyclopropyl)-N,N-dimethylmethanamine]	146 nM		4380 nM		
Cc1c(Cl)cc2[nH]nc(C)c2c1-c1c(F)cc2c(N3CC4CCC(C3)N4)nc(OCC3(CN4CCOCC4)CC3)nc2c1F [Ex 74, 4-((1-(((4-(3,8-diazabicyclo[3.2.1]octan-3-yl)-7-(6-chloro-3,5-dimethyl-1H-indazol-4-yl)-6,8-difluoroquinazolin-2-yl)oxy)methyl)cyclopropyl)methyl) morpholine]	69.1 nM		2000 nM		
CC[C@@H]1N[C@H]2CC[C@@H]1N(c1nc(OCC3(CN(C)C)CC3)nc3c(F)c(-c4cc(O)cc5ccccc45)c(Cl)cc13)C2 [Example 40, 4-(6-chloro-2-((1-((dimethylamino)methyl)cyclopropyl)methoxy)-4-((1S,4S,6S)-6-ethyl-2,5-diazabicyclo[2.2.2]octan-2-yl)-8-fluoroquinazolin-7-yl)naphthalen-2-ol]	689 nM		22000 nM		
C#Cc1cccc2cc(O)cc(-c3c(F)cc4c(N5C[C@H]6CC[C@@](C)(C5)N6)nc(OCC5(CN6CC[C@@H](F)C6)CC5)nc4c3F)c12 (single isomer, unassigned) [103b, TFA]	458 nM				2480 nM
Cc1c(Cl)cc2[nH]ccc2c1-c1c(F)cc2c(N3CC4CCC(C3)N4)nc(OCC3(CN(C)C)CC3)nc2c1F [Ex 73, 1-(1-(((4-(3,8-diazabicyclo[3.2.1]octan-3-yl)-7-(6-chloro-5-methyl-1H-indol-4-yl)-6,8-difluoroquinazolin-2-yl)oxy)methyl)cyclopropyl)-N,N-dimethylmethanamine]	1250 nM		14000 nM		
Oc1cc(-c2c(F)cc3c(N4CC5NC(C4)C(O)C5O)nc(OCC4(CN5CCOCC5)CC4)nc3c2F)c2ccccc2c1 (stereo not drawn) [Ex. 2, 3-(6,8-difluoro-7-(3-hydroxynaphthalen-1-yl)-2-((1-(morpholinomethyl)cyclopropyl)methoxy)quinazolin-4-yl)-3,8-diazabicyclo[3.2.1]octane-6,7-diol]	660 nM		33200 nM		
Cc1cc(N)nc(-c2c(F)cc3c(N4CC5CCC(C4)N5)nc(OCC4(CN5CCOCC5)CC4)nc3c2F)c1Cl [Ex 88, 6-(4-((1R,5S)-3,8-diazabicyclo[3.2.1]octan-3-yl)-6,8-difluoro-2-((1-(morpholinomethyl)cyclopropy)methoxy)quinazolin-7-yl)-5-chloro-4-methylpyridin-2-amine]	1350 nM		13200 nM		
CC[C@@H]1[C@@H]2CC[C@@H](CN2)N1c1nc(OCC2(CN(C)C)CC2)nc2c(F)c(-c3cc(O)cc4ccccc34)c(F)cc12 [Example 10, 4-(2-((1-((dimethylamino)methyl)cyclopropyl)methoxy)-4-((1S,3R,4S)-3-ethyl-2,5-diazabicyclo[2,2,2]octan-2-yl)-6,8-difluoroquinazolin-7-yl)naphthalen-2-ol]	2750 nM		9830 nM		
CN(C)CC1(COc2nc(N3CC4CCC(C3)N4)c3cc(Cl)c(-c4cc(O)ccc4C45CC(C4)C5)c(F)c3n2)CC1 [Example 47, 3-(4-(3,8-diazabicyclo[3.2.1]octan-3-yl)-6-chloro-2-((1-((dimethylamino)methyl)cyclopropyl)methoxy)-8-fluoroquinazolin-7-yl)-4-(bicyclo[1.1.1]pentan-1-yl)phenol]	551 nM		5790 nM		
Oc1ccc(SC(F)(F)F)c(-c2c(F)cc3c(N4CC5CCC(C4)N5)nc(OCC4(CN5CCOCC5)CC4)nc3c2F)c1 [Example 48, 3-(4-(3,8-diazabicyclo[3.2.1]octan-3-yl)-6,8-difluoro-2-((1-(morpholinomethyl)cyclopropyl)methoxy)quinazolin-7-yl)-4-((trifluoromethyl)thio)phenol]	529 nM		6120 nM		
Cc1cc2[nH]ncc2c(C2Cc3nc(OC[C@]4(CN(C)C)CC4(F)F)nc(N4C[C@H]5CC[C@@](C)(C4)N5)c3C(=O)O2)c1C(F)(F)F (single isomer, unassigned) [Ex. 96a]	1280 nM			20800 nM	
CN(C)CC1(COc2nc(N3CC4CCC(C3)N4)c3cc(Cl)c(-c4c5ccccc5cc5[nH]c(=O)[nH]c45)c(F)c3n2)CC1 [Example 46, 4-(4-(3,8-diazabicyclo[3.2.1]octan-3-yl)-6-chloro-2-((1-((dimethylamino)methyl)cyclopropyl)methoxy)-8-fluoroquinazolin-7-yl)-1,3-dihydro-2H-naphtho[2,3-d]imidazol-2-one]	9340 nM		50800 nM		
CN(C)C1CC[C@H]2C[C@@]12COc1nc(N2C[C@H]3CC[C@@](C)(C2)N3)c2cc(F)c(-c3cc(O)cc4ccccc34)c(F)c2n1 (single isomer, unassigned) [Example 12a]	1.89 nM			396 nM	
CN(C)C[C@@]1(COc2nc(N3C[C@H]4CC[C@@](C)(C3)N4)c3cc(Cl)c(-c4c(F)cc(F)c5ccc(N)nc45)c(F)c3n2)CC1(F)F (single isomer, unassigned) [92a]	11100 nM			13200 nM	
O=C(O)C1CC1COc1nc(N2CC3CCC(C2)N3)c2cc(F)c(-c3cc(O)cc4ccccc34)c(F)c2n1 (stereo not drawn) [Example 13, 2-(((4-(3.8-diazabicyclo[3.2.1]octan-3-yl)-6,8-difluoro-7-(3-hydroxynaphthalen-1-yl)quinazolin-2-yl)oxy)methyl)cyclopropane-1-carboxylc acid]	5880 nM			50800 nM	
C=C[C@@H]1[C@@H]2CC[C@@H](CN2)N1c1nc(OCC2(CN(C)C)CC2)nc2c(F)c(-c3cc(O)cc4ccccc34)c(F)cc12 [Example 6b, 4-(2-((1-((dimethylamino)methyl)cyclopropyl)methoxy)-6,8-difluoro-4-((1S,3R,4S)-3-vinyl-2,5-diazabicyclo[2.2.2]octan-2-yl)quinazolin-7-yl)naphthalen-2-ol]	426 nM		5500 nM		
